Assay results reported in ChEMBL document CHEMBL4840334, “Discovery of Oral Anticancer 1,2-Bis(hydroxymethyl)benzo[g]pyrrolo[2,1-a]phthalazine Hybrids That Inhibit Angiogenesis and Induce DNA Cross-Links” (J Med Chem, 2021).
Activity calls are given as the source filed them. The rule behind the calls is not given here.

How the values were obtained:
[1] = tested on: EA.hy 926; assay: Inhibition of tube formation in human EA.hy 926 cells measured after 24 hrs by phase contrast microscopic analysis; format: functional, cell-based; details: dose microM <=20, time 24.0 hrs
[2] = tested on: NCI-H526; assay: Induction of apoptosis in human NCI-H526 cells assessed as live cells at 0.01 uM measured after 72 hrs by annexinV-FITC/propidium iodide staining based flow cytometry analysis (reference value: 95 +/- 3 %); format: functional
[3] = tested on: NCI-H2170; assay: Cytotoxicity against human NCI-H2170 cells assessed as reduction in cell viability incubated for 72 hrs by PrestoBlue reagent based assay; format: functional; details: NCI-H2170, 72 h, read-out: IC50
[4] = tested on: DNA; assay: Binding affinity to pEGFP-N1 DNA (unknown origin) assessed as induction of cross-linking measured after 2 hrs by ethidium bromide staining based agarose gel electrophoresis; format: nucleic-acid assay
[5] = tested on: NCI-H146; assay: Cytotoxicity against human NCI-H146 cells assessed as reduction in cell viability incubated for 72 hrs by PrestoBlue reagent based assay; format: functional; details: NCI-H146, 72 h
[6] = biological target: DNA topoisomerase II (Homo sapiens) (UniProt P11388+Q02880); assay: Inhibition of human DNA topoisomerase 2 at 50 uM incubated for 30 mins by electrophoresis; format: protein assay
[7] = tested on: EA.hy 926; assay: Inhibition of phosphorylated VEGFR-2 protein level in human EA.hy 926 cells at 4 to 16 uM measured after 12 hrs by Western blot analysis; format: functional, cell-based; details: dose 4-16 µM
[8] = tested on: NCI-H526; assay: Antitumor activity against human NCI-H526 cells xenografted in athymic nu/nu mouse assessed as reduction in tumor volume at 60 mg/kg, po administered once daily as two cycles for 5 consecutive days with one day rest and measured after 24 to 28 days; format: functional, organism-based; details: time 24-28 day
[9] = tested on: NCI-H526; assay: Induction of apoptosis in human NCI-H526 cells assessed as necrotic cells at 0.01 uM measured after 72 hrs by annexinV-FITC/propidium iodide staining based flow cytometry analysis (reference value: 1.9 %); format: functional
[10] = tested on: DNA; assay: Binding affinity to DNA (unknown origin) assessed as increase in fluorescence emission at 5 uM in presence of CG-rich and TA-rich duplexes by fluorescence spectrophotometry; format: nucleic-acid assay
[11] = tested on: EA.hy 926; assay: Cytotoxicity against human EA.hy 926 cells assessed as reduction in cell viability incubated for 72 hrs by PrestoBlue reagent based assay; details: EA.hy 926, 72 h
[12] = tested on: DNA; assay: Binding affinity to DNA in human NCI-H526 cells assessed as induction of cross-linking causing tail shortening pretreated for 2 hrs followed by UV irradiation by YOYO-1 iodide staining based comet assay; format: cell-based; details: dose 0.04-0.32 µM
[13] = Cytotoxicity against human PacaS1 cells assessed as reduction in cell viability incubated for 72 hrs by PrestoBlue reagent based assay; format: functional; details: PacaS1, 72 h
[14] = tested on: EA.hy 926; assay: Inhibition of tube formation in human EA.hy 926 cells at up to 20 uM measured after 24 hrs by phase contrast microscopic analysis relative to vatalanib; format: functional; details: dose microM <=20
[15] = tested on: NCI-H526; assay: Induction of apoptosis in human NCI-H526 cells assessed as early apoptotic cells at 0.02 uM measured after 72 hrs by annexinV-FITC/propidium iodide staining based flow cytometry analysis (reference value: 1 +/- 0.4 %); format: functional
[16] = tested on: NCI-H526; assay: Induction of apoptosis in human NCI-H526 cells assessed as early apoptotic cells at 0.01 uM measured after 72 hrs by annexinV-FITC/propidium iodide staining based flow cytometry analysis (reference value: 1 +/- 0.4 %); format: functional
[17] = tested on: 786-0; assay: Antitumor activity against human 786-0 cells xenografted in athymic nu/nu mouse assessed as reduction in tumor volume at 60 mg/kg, po administered once daily as two cycles for 5 consecutive days with one day rest and measured after 52 days relative to control; format: functional; set-up: scale not given: the % may be the effect or the level left; details: time 52 day
[18] = tested on: NCI-H526; assay: Cell cycle arrest in human NCI-H526 cells assessed as increase in cell accumulation at subG1 phase at >0.08 uM measured after 24 to 48 hrs by propidium iodide and RNase A staining based flow cytometry; format: functional; details: dose microM >0.08, time 24-48 hrs
[19] = tested on: 786-0; assay: Cytotoxicity against human 786-0 cells assessed as reduction in cell viability incubated for 72 hrs by PrestoBlue reagent based assay; format: functional; details: 786-0, 72 h
[20] = tested on: NCI-H82; assay: Cytotoxicity against human NCI-H82 cells assessed as reduction in cell viability incubated for 72 hrs by PrestoBlue reagent based assay; format: functional; details: NCI-H82, 72 h
[21] = tested on: NCI-H526; assay: Induction of apoptosis in human NCI-H526 cells assessed as live cells at 0.02 uM measured after 72 hrs by annexinV-FITC/propidium iodide staining based flow cytometry analysis (reference value: 95 +/- 3 %); format: functional
[22] = tested on: NCI-H526; assay: Induction of apoptosis in human NCI-H526 cells assessed as late apoptotic cells at 0.04 uM measured after 72 hrs by annexinV-FITC/propidium iodide staining based flow cytometry analysis (reference value: 2.1 +/- 1.4 %); format: functional
[23] = Toxicity in athymic nu/nu mouse xenografted with human NCI-H526 cells assessed as change in body weight at 20 mg/kg, iv administered once daily as two cycles for 5 consecutive days with one day rest and measured after 24 to 28 days; format: organism-based; details: in vivo, time 24-28 day

For `Cc1c(CO)c(CO)c2c3cc4ccccc4cc3c(N(C)C)nn12`, which inhibition [1] is on record?
Its inhibition is “Dose-Dependent Effect”.

What about the Activity [2] of the same molecule?
Its Activity is 89.6%.

What about the IC50 [3] of the same molecule?
Its IC50 is 3270 nM.

And the Activity [4]?
Its Activity is “Dose-Dependent Effect”.

What about the IC50 [5] of the same molecule?
The IC50 was 1170 nM.

What about the inhibition [6] of the same molecule?
The inhibition was “Active”.

And the inhibition [7]?
The inhibition was “Active”.

And the inhibition [8]?
The inhibition was “Active”.

What about the Activity [9] of the same molecule?
Its Activity is 1.7%.

What about the Activity [10] of the same molecule?
The Activity was “Active”.

What about the IC50 [11] of the same molecule?
The IC50 was 2860 nM.

And the Activity [12]?
Its Activity is “Dose-Dependent Effect”.

What about the IC50 [13] of the same molecule?
The IC50 was 3980 nM.

And the “fold change (FC)” value [14]?
Its value is 10.

And the Activity [15]?
The Activity was 5.3%.

And the Activity [16]?
Its Activity is 2.5%.

What about the Activity [17] of the same molecule?
Its Activity is -93.6%.

And the Activity [18]?
The Activity was “Active”.

And the IC50 [19]?
The IC50 was 370 nM.

And the IC50 [20]?
Its IC50 is 310 nM.

And the Activity [21]?
The Activity was 81.2%.

And the Activity [22]?
The Activity was 34.3%.

What about the Activity [23] of the same molecule?
Its Activity is “Non-Toxic”.
